Data taken from patent publication US8399498B2, “Animal ectoparasite-controlling agent” (Sumitomo Chemical Company, Limited, priority 2010, dated 2013).

Experiments:
Assay type in all cases: in vivo
[1] = tested on: Haemaphysalis longicornis; test: Dropping application against dog-infested ticks; conditions: dog (beagle), dropping application on skin of neck and back, 20 mg/kg
Experimental: The previous day before dropping application, 100 test ticks (Haemaphysalis longicornis, young ticks) were deposited on a dog (beagle). Before the dropping application, infested ticks were counted.
Each (1.5 g) of the present hydrazide compound (1) and Comparative compound (52) was dissolved in diethylene glycol monoethyl ether (6.0 g) to prepare a test solution. Said test solution was directly dropped on the skin of the neck and back of the dog while pushing aside fur thereon at a rate of 0.1 ml per 1 kg of the dog's body weight (dose amount: 20 mg/kg). This is referred to as a test group. On the other hand, diethylene glycol monoethyl ether alone was applied dropwise to a placebo group.
Two (2) days after the application, the number of living ticks, which were infesting the dogs, was examined. When the examination was completed, all infested ticks were removed from the dogs.
The infestation rate and control rate were calculated by the following formulae:
Method of calculating infestation rate and control rate at the initial stage (2 days) after the application: Infestation rate (%) at X days after application=(number of living ticks at X days/number of living ticks before application)×100 Control rate (%) at X days after application=(infestation rate of test group before application−infestation rate of test group at X days)/infestation rate of test group before application×100 […]

[2] = tested on: Haemaphysalis longicornis; test: Dropping application against mouse-infested ticks; conditions: 0.1% w/v solution 200 μL dropwise on whole body surface, 2 days after application
Experimental: The previous day before dropping application, 30 test ticks (Haemaphysalis longicornis, young ticks) were deposited on a mouse. Before the dropping application, uninfested ticks were removed.
The present hydrazide compound (1) (5 mg) was dissolved in a mixture (5 mL) of propylene carbonate and diethylene glycol monoethyl ether in equal amounts to prepare a 0.1% w/v solution. Said solution (200 μL) was applied dropwise to the whole body surface of a mouse with a pipette. To a control group, the mixture (200 μL) alone was applied. Each application was repeated 3 times per group.
Two (2) days after the application, the number of dead ticks was examined and the mortality was calculated by the following formula: Mortality (%)=100×(number of dead ticks/infested ticks before dropping application)

[3] = tested on: Haemaphysalis longicornis; test: Oral administration against mouse-infested ticks; conditions: test solution 20 mg/10 mL at 10 mL per 1 kg body weight, 2 days after administration
Experimental: The previous day before oral administration, 30 test ticks (Haemaphysalis longicornis, young ticks) were deposited on a mouse. Before the oral administration, uninfested ticks were removed.
The present hydrazide compound (1) (20 mg) was dissolved in dimethylformamide (680 mg), and thereto a corn oil was added to prepare a test solution (10 mL). Said test solution was orally administered to the mouse at the rate of 10 mL per 1 kg of the body weight of the mouse with a gastric sonde. To a control group, a 7% dimethylformamide/corn oil solution alone was orally administered. Each administration was repeated 3 times per group.
Two (2) days after the administration, the number of dead ticks was examined and the mortality was calculated by the following formula: Mortality (%)=100×(number of dead ticks/infested ticks before oral administration)

SMILES	Tick control rates (%) at 2 days after the application [1] [%]	Mortality [2] [%]	Mortality [3] [%]
CC(=O)NNc1cc(C2=NOC(c3cc(Cl)cc(Cl)c3)(C(F)(F)F)C2)ccc1Cl (stereo not shown) [Comparative compound (52), N′-{5-[5-(3,5-dichlorophenyl)-5-trifluoromethyl-4,5-dihydroisoxazol-3-yl]-2-chlorophenyl}acetohydrazide, reference compound]	44	–	–
COCC(=O)NNc1cc(C2=NOC(c3cc(Cl)cc(Cl)c3)(C(F)(F)F)C2)ccc1Cl (stereo not shown) [Compound (1), N′-{2-chloro-5-[5-(3,5-dichlorophenyl)-5-trifluoromethyl-4,5-dihydroisoxazol-3-yl]phenyl}methoxyacetohydrazide]	94	≥ 70	≥ 90
